Ki data for 26 compounds are collected here from EP2970215B1, “PYRROLIDINE DERIVATIVES, PHARMACEUTICAL COMPOSITIONS CONTAINING THEM, AND THEIR USE IN THERAPY” (AbbVie Deutschland GmbH & Co. KG, priority 2013, dated 2014).

In this test the target is T1, human GlyT1c transporter (Homo sapiens, UniProt P48067).
T1 construct: expressed in transfected cells; host or cells: CHO cells (recombinant; line hGlyT1c_5_CHO is named for the uptake assay)
T1 sequence (P48067 1-706): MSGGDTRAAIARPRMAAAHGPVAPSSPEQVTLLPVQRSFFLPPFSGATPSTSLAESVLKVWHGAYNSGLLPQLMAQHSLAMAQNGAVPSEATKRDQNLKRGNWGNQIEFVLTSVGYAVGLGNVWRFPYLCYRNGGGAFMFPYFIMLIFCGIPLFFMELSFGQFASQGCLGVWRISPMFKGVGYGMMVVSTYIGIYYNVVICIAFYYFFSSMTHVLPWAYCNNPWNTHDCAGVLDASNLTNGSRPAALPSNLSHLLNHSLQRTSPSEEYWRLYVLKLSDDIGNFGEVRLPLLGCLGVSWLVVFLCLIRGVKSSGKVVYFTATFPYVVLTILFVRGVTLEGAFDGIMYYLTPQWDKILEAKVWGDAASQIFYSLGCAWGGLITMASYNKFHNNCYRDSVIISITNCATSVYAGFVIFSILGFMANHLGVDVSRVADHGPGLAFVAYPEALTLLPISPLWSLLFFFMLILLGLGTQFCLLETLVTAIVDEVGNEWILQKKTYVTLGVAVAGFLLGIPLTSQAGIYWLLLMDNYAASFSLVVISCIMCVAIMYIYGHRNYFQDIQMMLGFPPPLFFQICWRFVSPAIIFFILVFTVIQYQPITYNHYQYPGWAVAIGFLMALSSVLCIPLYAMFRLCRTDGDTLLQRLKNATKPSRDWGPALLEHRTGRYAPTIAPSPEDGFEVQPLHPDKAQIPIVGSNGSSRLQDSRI
The test can be described thus: Radioligand binding assay using recombinant CHO cell membranes expressing human GlyT1. Particulars: radioligand binding to human GlyT1c transporter-expressing membranes. The text has this:
2. Radioligand binding assays using recombinant CHO cell membranes expressing human GlyT1: […]

Some results are limits rather than exact numbers.

Regarding `Cc1ccc(N[C@@H]2CN(S(=O)(=O)c3cn(C)cn3)C[C@H]2c2ccc(F)cc2)cc1` (relative stereo) [Example 86, trans-4-(4-fluorophenyl)-1-[(1-methyl-1H-imidazol-4-yl)sulfonyl]-N-(4-methylphenyl)pyrrolidin-3-amine], the Ki is at most 1000 nM. In the case of `Cn1cnc(S(=O)(=O)N2C[C@H](Nc3ccc(C(F)(F)F)c(C(F)(F)F)c3)[C@@H](c3ccccc3)C2)c1` [Example 656, (3R,4S)-N-[3,4-bis(trifluoromethyl)phenyl]-1-[(1-methyl-1H-imidazol-4-yl)sulfonyl]-4-phenylpyrrolidin-3-amine], the inhibitory constant (Ki) is at most 1000 nM. Take `Cn1cnc(S(=O)(=O)N2C[C@@H](CNc3ccc(F)c(C(F)(F)F)c3)[C@H](c3ccc(F)cc3)C2)c1` (relative stereo) [Example 313, 4-fluoro-N-({trans-4-(4-fluorophenyl)-1-[(1-methyl-1H-imidazol-4-yl)sulfonyl]pyrrolidin-3-yl}methyl)-3-(trifluoromethyl)aniline]: the Ki was at most 1000 nM. Take `Cn1cnc(S(=O)(=O)N2C[C@H](NCC3(C(F)(F)F)CC3)[C@@H](c3ccc(F)cc3)C2)c1` [Example 386, (3R,4S)-4-(4-fluorophenyl)-1-[(1-methyl-1H-imidazol-4-yl)sulfonyl]-N-{[-(trifluoromethyl)cyclopropyl]methyl}pyrrolidin-3-amine]: the Ki is at most 1000 nM.

As for `Cc1ccccc1C(=O)N[C@@H]1CN(S(=O)(=O)c2cn(C)cn2)C[C@H]1c1ccccc1` (relative stereo) [Example 22, 2-methyl-N-{trans-1-[(1-methyl-1H-imidazol-4-yl)sulfonyl]-4-phenylpyrrolidin-3-yl}benzamide], the Ki was at most 10000 nM. Turning to `Cn1cnc(S(=O)(=O)N2C[C@@H](NC(=O)c3ccccc3Cl)[C@H](c3ccccc3)C2)c1` (relative stereo) [Example 14, 2-chloro-N-{trans-1-[(1-methyl-1H-imidazol-4-yl)sulfonyl]-4-phenylpyrrolidin-3-yl}benzamide], the Ki was at most 1000 nM. With `Cn1cnc(S(=O)(=O)N2C[C@@H](Nc3cc(F)c(F)c(Cl)c3)[C@H](c3ccc(F)cc3)C2)c1` (relative stereo) [Example 175, trans-N-(3-chloro-4,5-difluorophenyl)-4-(4-fluorophenyl)-1-[(1-methyl-1H-imidazol-4-yl)sulfonyl]pyrrolidin-3-amine], the inhibitory constant (Ki) is at most 1000 nM.

With `Cn1cnc(S(=O)(=O)N2C[C@@H](NCc3ccc(C(F)(F)F)c(Cl)c3)[C@H](c3ccc(F)cc3)C2)c1` (relative stereo) [Example 151, trans-N-[3-chloro-4-(trifluoromethyl)benzyl]-4-(4-fluorophenyl)-1-[(1-methyl-1H-imidazol-4-yl)sulfonyl]pyrrolidin-3-amine], the Ki is at most 100 nM. Take `Cn1cnc(S(=O)(=O)N2C[C@@H](CNc3ccc(C(F)(F)F)cc3)[C@H](c3ccc(F)cc3)C2)c1` (relative stereo) [Example 291, N-({trans-4-(4-fluorophenyl)-1-[(1-methyl-1H-imidazol-4-yl)sulfonyl]pyrrolidin-3-yl}methyl)-4-(trifluoromethyl)aniline]: the Ki is at most 100 nM. In the case of `Cn1cnc(S(=O)(=O)N2C[C@@H](Nc3ccc(Cl)c(F)c3)[C@H](c3cccc(F)c3)C2)c1` (relative stereo) [Example 193, trans-N-(4-chloro-3-fluorophenyl)-4-(3-fluorophenyl)-1-[(1-methyl-1H-imidazol-4-yl)sulfonyl]pyrrolidin-3-amine], the Ki was at most 10000 nM. For `Cn1cnc(S(=O)(=O)N2C[C@@H](C(=O)c3ccccc3)[C@H](c3ccc(F)cc3)C2)c1` (relative stereo) [Example 271, {trans-4-(4-fluorophenyl)-1-[(1-methyl-1H-imidazol-4-yl)sulfonyl]pyrrolidin-3-yl}(phenyl)methanone], the Ki was at most 1000 nM. With `CCCNCCO[C@@H]1CN(S(=O)(=O)c2cn(C)cn2)C[C@H]1c1ccc(F)cc1` (relative stereo) [Example 688, N-[2-({Trans-4-(4-fluorophenyl)-1-[(1-methyl-1H-imidazol-4-yl)sulfonyl]pyrrolidin-3-yl}oxy)ethyl]propan-1-amine], the Ki is at most 1000 nM. Turning to `Cn1cnc(S(=O)(=O)N2C[C@H](NCc3ccc(C(F)(F)F)cn3)[C@@H](c3ccccc3)C2)c1` [Example 409, (3R,4S)-1-[(1-methyl-1H-imidazol-4-yl)sulfonyl]-4-phenyl-N-{[5-(trifluoromethyl)pyridin-2-yl]methyl}pyrrolidin-3-amine], the Ki was at most 100 nM. `Cn1cnc(S(=O)(=O)N2C[C@H](Nc3ccc4c(c3)CCCO4)[C@@H](c3ccccc3)C2)c1` [Example 658, (3R,4S)-N-(3,4-dihydro-2H-chromen-6-yl)-1-[(1-methyl-1H-imidazol-4-yl)sulfonyl]-4-phenylpyrrolidin-3-amine]: the Ki is at most 1000 nM.

With `Cn1cnc(S(=O)(=O)N2C[C@@H](CNc3ccc(F)c(OC(F)(F)F)c3)[C@H](c3ccc(F)cc3)C2)c1` (relative stereo) [Example 376, 4-fluoro-N-({trans-4-(4-fluorophenyl)-1-[(1-methyl-1H-imidazol-4-yl)sulfonyl]pyrrolidin-3-yl}methyl)-3-(trifluoromethoxy)aniline], the Ki is at most 1000 nM. Regarding `Cn1cnc(S(=O)(=O)N2C[C@@H]([C@@H]3CCCOC3)[C@H](Nc3cccc(OC(F)(F)F)c3)C2)c1` (mixture of isomers) [Example 784, trans-1-[(1-methyl-1H-imidazol-4-yl)sulfonyl]-4-[(3S)-tetrahydro-2H-pyran-3-yl]-N-[3-(trifluoromethoxy)phenyl]pyrrolidin-3-amine], the Ki was at most 100 nM. Turning to `Cn1cnc(S(=O)(=O)N2C[C@@H](Nc3cccc(Cl)c3)[C@H](c3ccccc3)C2)c1` (relative stereo) [Example 74, trans-N-(3-chlorophenyl)-1-[(1-methyl-1H-imidazol-4-yl)sulfonyl]-4-phenylpyrrolidin-3-amine], the Ki is at most 100 nM. For the compound `Cn1cnc(S(=O)(=O)N2C[C@H](Nc3cc(C(F)(F)F)c(Cl)cn3)[C@@H](c3ccc(F)cc3)C2)c1` [Example 617, 5-chloro-N-{(3R,4S)-4-(4-fluorophenyl)-1-[(1-methyl-1H-imidazol-4-yl)sulfonyl]pyrrolidin-3-yl}-4-(trifluoromethyl)pyridin-2-amine], the inhibition constant Ki is at most 10 nM. The figure for `Cn1cnc(S(=O)(=O)N2CC(c3ccccc3)C(Cc3cccc(Cl)c3)C2=O)c1` (centres unmarked) [Example 331, 3-(3-chlorobenzyl)-1-[(1-methyl-1H-imidazol-4-yl)sulfonyl]-4-phenylpyrrolidin-2-one] is at most 1000 nM. With `O=S(=O)(c1ccc2c(c1)OCCO2)N1CC(Nc2ccc(F)c(F)c2)C(c2ccccc2)C1` (centres unmarked) [Example 496, N-(3,4-difluorophenyl)-1-(2,3-dihydro-1,4-benzodioxin-6-ylsulfonyl)-4-phenylpyrrolidin-3-amine], the Ki was at least 10000 nM. For `CCOCCCN[C@H]1CN(S(=O)(=O)c2cn(C)cn2)C[C@@H]1c1ccccc1` [Example 589, (3R,4S)-N-(3-ethoxypropyl)-1-[(1-methyl-1H-imidazol-4-yl)sulfonyl]-4-phenylpyrrolidin-3-amine], the Ki is at most 1000 nM. For `Cn1cnc(S(=O)(=O)N2C[C@@H](Nc3ccnc(C(F)(F)F)c3)[C@H](c3ccccc3)C2)c1` (relative stereo) [Example 211, N-{trans-1-[(1-methyl-1H-imidazol-4-yl)sulfonyl]-4-phenylpyrrolidin-3-yl}-2-(trifluoromethyl)pyridin-4-amine], the Ki was at most 1000 nM.

`CCCCCN[C@@H]1CN(S(=O)(=O)c2cn(C)cn2)C[C@H]1c1ncccc1F` (relative stereo) [Example 765, Trans-4-(3-fluoropyridin-2-yl)-1-[(1-methyl-1H-imidazol-4-yl)sulfonyl]-N-pentylpyrrolidin-3-amine]: the Ki is at most 1000 nM. The result for `Cn1cnc(S(=O)(=O)N2C[C@@H](Nc3cccc(F)c3)[C@H](c3ccccc3Cl)C2)c1` (relative stereo) [Example 252, trans-4-(2-chlorophenyl)-N-(3-fluorophenyl)-1-[(1-methyl-1H-imidazol-4-yl)sulfonyl]pyrrolidin-3-amine] reads at most 1000 nM; that for `Cn1cnc(S(=O)(=O)N2C[C@@H](Nc3ccc(C(F)(F)F)c(Cl)c3)[C@H](c3ccc(F)cc3)C2)c1` (relative stereo) [Example 173, trans-N-[3-chloro-4-(trifluoromethyl)phenyl]-4-(4-fluorophenyl)-1-[(1-methyl-1H-imidazol-4-yl)sulfonyl]pyrrolidin-3-amine], at most 1000 nM; that for `O=S(=O)(c1cnc2n1CCC2)N1CC(Nc2ccc(F)c(F)c2)C(c2ccccc2)C1` (centres unmarked) [Example 497, N-(3,4-difluorophenyl)-1-(6,7-dihydro-5H-pyrrolo[1,2-a]imidazol-3-ylsulfonyl)-4-phenylpyrrolidin-3-amine], at most 10000 nM.
